Measured values reported in patent US10391070B2, “Compositions and methods for treating neurological diseases or injury” (MUSC FOUNDATION FOR RESEARCH DEVELOPMENT, priority 2012, dated 2019).

Tests used:
[1] = test system: minimal clonic seizures (6 Hz); assay: Minimal clonic seizure (6 Hz) test; format: in vivo, mouse; conditions: mice; for animals protected/animals tested, 0.25 h / animals protected/animals tested, 0.5 h / animals protected/animals tested, 1.0 h / animals protected/animals tested, 2.0 h / animals protected/animals tested, 4.0 h: 6 Hz
Description: Mouse studies were performed by NIH Anticonvulsant Screening Program at the National Institute of Neurological Disorders and Stroke (Stables and Kupferberg, 1997) according to the established NIH experimental procedures outlined below. Compounds were delivered into mice by i.p. injection at a dose of 100 mg/kg in sterile 5% DMSO, 95% Neobee (Josey et al., 2013). One of four methods for seizure induction was subsequently administered to mice at 0.25, 0.5, 1, 2 and 4 h after treatment with compound. (1) Subcutaneous PTZ seizure threshold test. PTZ was administered at a concentration of 85 mg/kg, into the loose fold of skin in the midline of the neck. […] (2) Maximal electroshock test. 60 Hz of 50 mA alternating current was delivered for 0.2 s by corneal electrodes. Mice were considered protected from seizures when the hindlimb tonic extensor was absent (White et al., 1995). (3) Minimal clonic seizure (6 Hz) test. 6 Hz of 32 mA or 44 mA alternating current was delivered for 3 s by corneal electrodes to elicit a psychomotor seizure. Mice were considered protected from seizures when the automatistic behaviors were absent (Barton et al., 2001). (4) Corneal kindled mouse model. Mice were kindled electrically with a 3 s stimulation, 8 mA, 60 Hz, and corneal electrodes to a criterion of 10 consecutive Stage 5 seizures (facial clonus and head nodding progressing to forelimb clonus, and finally rearing and falling accompanied by a generalized clonic seizure as described by Racine, 1972). Animals generally reach Stage 5 after twice daily stimulation for 8 days. With continued stimulation once a day, animals usually progressed to a reproducible Stage 5 after 10-14 additional days. At least 72 hours after the mice were kindled, the test substance was administered i.p. and each animal was given the electrical stimulus indicated above. […] Treated animals not displaying a Stage 4 or 5 seizure were considered protected.
6 Hz of 32 mA or 44 mA alternating current was delivered for 3 s by corneal electrodes to elicit a psychomotor seizure. Mice were considered protected from seizures when the automatistic behaviors were absent (Barton et al., 2001). Pre-administration of test compounds (100 mg/kg) to mice via i.p. injection protects against minimal clonic seizures (6 Hz). The data for each treatment is represented as the number of animals protected/number of animals tested.
The minimal clonic seizure (6 Hz) test is generally used to assess a agent's efficacy against electrically-induced seizures but uses a lower frequency (6 Hz) and longer duration of stimulation (3s) shock. Test compounds are pre-administered to mice via i.p. injection. Individual mice are challenged with sufficient current delivered through corneal electrodes to elicit a psychomotor seizure in 97% of animals (32 mA for 3s). Untreated mice will display seizures characterized by a minimal clonic phase followed by stereotyped, automatistic behaviors described originally as being similar to the aura of human patients with partial seizures. Animals not displaying this behavior are considered protected. Animals may also be evaluated using stimulation of 22 or 44 mA.

[2] = test system: HT22 cells; assay: Glutathione determination in glutamate-treated cells; format: cell-based, mouse; conditions: HT22, 10 mM glutamate 8 hrs, 500 nM
Description: The content of total glutathione (reduced and oxidized) in the supernatant of cell homogenate was measured using the glutathione assay kit (Cayman Chemical) in microtiter plate assay, which utilizes an enzymatic recycling method, using glutathione reductase, for the quantification of glutathione. The sulfhydryl group of glutathione reacted with 5,5′-dithiobis-2-nitrobenzoic acid (DTNB) and produced a yellow-colored 5-thio-2-nitrobenzoic acid (TNB), which was measured at 405 nm.

[3] = test system: PTZ-induced seizures; assay: PTZ-induced seizure (swim activity) model in zebrafish larvae; format: in vivo, zebrafish (Danio rerio)

Compound | animals protected/animals tested, 0.25 h ([1]; 100 mg/kg i.p., 32 mA) | animals protected/animals tested, 0.5 h ([1]; 100 mg/kg i.p., 32 mA) | animals protected/animals tested, 1.0 h ([1]; 100 mg/kg i.p., 32 mA) | animals protected/animals tested, 2.0 h ([1]; 100 mg/kg i.p., 32 mA) | animals protected/animals tested, 4.0 h ([1]; 100 mg/kg i.p., 32 mA) | protection against 6 Hz seizures ([1]; 100 mg/kg i.p., 32 mA, 0.25 h) [%] | anticonvulsant activity in minimal clonic (6 Hz) test ([1]; 32 mA) | protection in 6 Hz model at 44 mA ([1]; 44 mA) | depletion of total cellular GSH [2] | fold reduction of PTZ-induced swim activity (distance traveled) ([3]; 7 dpf zebrafish, 1 h pretreatment, 15 mM PTZ, 2j 10 μM, 2h 20 μM, 2q 20 μM, 3n 8 μM) | fold reduction of distance traveled from PTZ levels ([3]; 7 dpf zebrafish, 1.5 μM) [fold] | fold reduction of PTZ-induced swim behavior ([3]; 7 dpf zebrafish, 3 μM) [fold] | fold reduction of distance traveled after PTZ treatment ([3]; 7 dpf zebrafish, 6 μM, 1 h pretreatment, 15 mM PTZ) | concentrations reducing seizure activity ([3]; PTZ-treated 6 dpf zebrafish, dose dependent) [µM] | reduction of seizures ([3]; PTZ-treated 6 dpf zebrafish, up to 100 mM)
C#CCNC1=CC(=O)c2ccccc2C1=O [Compound 2h, 2-(prop-2-yn-1-ylamino)naphthalene-1,4-dione] | 4/4 | 2/4 | 1/4 | 1/4 | 0/4 | 100 | good anticonvulsant activity | did not result in any protection |  |  |  |  |  |  | 
O=C1C=C(NCc2ccccc2)C(=O)c2ccccc21 [Compound 2j, 2-(benzylamino)naphthalene-1,4-dione] | 0/4 | 0/4 | 1/4 | 1/4 | 1/4 |  | good anticonvulsant activity |  | does not prevent GSH |  |  |  |  |  | 
O=C1C=C(NCc2cccc(Cl)c2)C(=O)c2ccccc21 [Compound 2q, 2-((3-chlorobenzyl)amino)naphthalene-1,4-dione] | 1/4 | 0/4 | 1/4 | 0/4 | 0/4 |  | good anticonvulsant activity |  | does not prevent GSH | more than two fold |  |  |  |  | 
CC1=CC(=O)c2ccccc2C1=O [VK3, menadione, reference compound] |  |  |  |  |  |  |  |  |  |  | 0.5 | 2 | more than 4 fold | 1.5 to 6 | 
menaquinones [VK2, reference compound] |  |  |  |  |  |  |  |  | does not prevent GSH |  |  |  |  |  | neither were found to reduce seizures
